In PubChem BioAssay (NCI):
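All cell lines were grown in 96-well plates and treated with compound for 48 hours. TGI denotes the concentration required for complete inhibition of growth.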

Key:
Assay in all cases: inhibition of tumour cell growth, NCI panel, 48 h
NCI-H460 lung = tested on: NCI-H460 lung
UACC-257 melanoma = tested on: UACC-257 melanoma
BT-549 breast = tested on: BT-549 breast
UO-31 renal = tested on: UO-31 renal
SR leukemia = tested on: SR leukemia
SK-MEL-5 melanoma = tested on: SK-MEL-5 melanoma
NCI/ADR-RES ovarian = tested on: NCI/ADR-RES ovarian
RPMI-8226 leukemia = tested on: RPMI-8226 leukemia
OVCAR-8 ovarian = tested on: OVCAR-8 ovarian
RXF 393 renal = tested on: RXF 393 renal
MOLT-4 leukemia = tested on: MOLT-4 leukemia
HS 578T breast = tested on: HS 578T breast
A549 NSCLC = tested on: A549 NSCLC
MDA-MB-435 = tested on: MDA-MB-435
HOP-62 NSCLC = tested on: HOP-62 NSCLC
HL-60(TB) leukemia = tested on: HL-60(TB) leukemia

| Compound | TGI (NCI-H460 lung) [µM] | TGI (UACC-257 melanoma) [µM] | TGI (BT-549 breast) [µM] | TGI (UO-31 renal) [µM] | TGI (SR leukemia) [µM] | TGI (SK-MEL-5 melanoma) [µM] | TGI (NCI/ADR-RES ovarian) [µM] | TGI (RPMI-8226 leukemia) [µM] | TGI (OVCAR-8 ovarian) [µM] | TGI (RXF 393 renal) [µM] | TGI (MOLT-4 leukemia) [µM] | TGI (HS 578T breast) [µM] | TGI (A549 NSCLC) [µM] | TGI (MDA-MB-435) [µM] | TGI (HOP-62 NSCLC) [µM] | TGI (HL-60(TB) leukemia) [µM] |
| --- | --- | --- | --- | --- | --- | --- | --- | --- | --- | --- | --- | --- | --- | --- | --- | --- |
| CC(C)(C)OC(=O)NC(Cc1ccc(OCc2ccccc2)cn1)C(=O)N1CCCCC1 (stereo not given) | > 100 | 47.3 | 60.7 | 71.4 | 93 | 31 | 59.2 | 52.7 | > 100 | 65.3 | 47.7 | > 100 | > 100 | 49 | > 100 | 82.1 |
| CCOC(=O)C(=Cc1[nH]c2ccccc2c1-c1c[nH]c2ccccc12)C(=O)OCC | 29.8 | 23.8 | 33.1 | 26.3 | 32.7 | 29.2 | 47.5 | 23.8 | 25.8 | 23.3 | > 100 | 91.3 | 35.9 | 18.3 | 28.1 |  |
| O=C1CSC(c2cccc(Oc3ccccc3)c2)N1c1ccc(Cl)cc1 (stereo not given) | 41.1 | 46.5 | > 100 | > 100 | 46.9 | 25.2 | > 100 |  | > 100 | 73.3 | 56.1 | > 100 | > 100 | 87.7 | > 100 | > 100 |
| Cc1ccc(N=Nc2c(O)ccc3cc(S(=O)(=O)O)cc(S(=O)(=O)O)c23)cc1 | > 100 | > 100 | > 100 | > 100 | > 100 | > 100 | > 100 |  | > 100 | > 100 | > 100 | > 100 | > 100 | > 100 | > 100 | > 100 |
| COc1cc(C(=O)N(Cc2cccnc2)C(=S)N(Cc2cccnc2)C(=O)c2cc(OC)c(OC)c(OC)c2)cc(OC)c1OC | > 100 | > 100 | 85.5 | > 100 | > 100 | > 100 | > 100 | > 100 | > 100 | > 100 | > 100 | > 100 | > 100 | > 100 | > 100 | > 100 |
| CCOC(=O)N/N=C(/N)c1cccc([N+](=O)[O-])c1 | > 100 | > 100 | > 100 | > 100 | > 100 | > 100 | > 100 |  | > 100 | > 100 | > 100 | > 100 | > 100 | > 100 | > 100 | > 100 |
| O=C(N/N=C\c1cccc2c([N+](=O)[O-])cccc12)Nc1ccccc1 | 30.9 | 44.4 | 29.3 | 26.4 | 43.3 | 33.5 | 32.3 | 44 | 36.8 | 26.3 | 41.7 | 33.5 | 28.3 | 25 | 36 | 72.6 |
| O=C(O)c1ccc([N+](=O)[O-])c2cc3cnccc3nc12 | > 100 |  | 33.5 | 43.7 | > 100 | 38.4 | 80.9 | > 100 | 48.9 | 74.1 | 29.7 | 65.6 |  | > 100 | > 100 | > 100 |
| CN1CCC(O)(C(C)(C)C)CC1 | > 100 | > 100 | > 100 | > 100 | > 100 | > 100 | > 100 | > 100 | > 100 | > 100 | > 100 | > 100 | > 100 | > 100 | > 100 | > 100 |
| Cc1ccc2c(c1)C(C(=O)N[C@@H]1C(=O)N3[C@@H]1SC(C)(C)[C@@H]3C(=O)O)OCCC2 (stereo not given in full) | > 100 | > 100 | > 100 | > 100 | > 100 | > 100 | > 100 | > 100 | > 100 | > 100 | > 100 | > 100 | > 100 | > 100 | > 100 | > 100 |
| O=C1CC(=Nc2ccc(Cl)cc2)C(c2ccccc2)N1c1ccccc1 (stereo not given) | > 100 | > 100 | 41.6 | > 100 | 45.5 | 22.8 | 95.8 | 13.1 |  | > 100 | > 100 | 26.6 | > 100 | 6.32 | > 100 | 21.3 |
| CC(=O)OCC12C(=O)C[C@@H](C)C3(CC(c4ccoc4)OC3=O)C1CCC(OC(C)=O)C21CO1 (stereo not given in full) | > 100 | > 100 | > 100 | > 100 | > 100 | > 100 | > 100 | > 100 | > 100 | > 100 | > 100 | > 100 | > 100 | > 100 | > 100 | > 100 |
| COc1ccc(C2OC[C@H]3O[C@@H](OCc4ccccc4)[C@H](O)[C@@H](O)[C@@H]3O2)cc1 (stereo not given in full) | > 100 | > 100 | > 100 | > 100 | > 100 | > 100 | > 100 | > 100 | > 100 | > 100 | > 100 | > 100 | > 100 | > 100 | > 100 |  |
| CCOP(C)(=O)C(N)Cc1ccc(OC)c(OC)c1 (stereo not given) | > 100 |  | > 100 | > 100 | > 100 | > 100 | > 100 | > 100 | > 100 | > 100 | > 100 | > 100 | > 100 | > 100 | > 100 | > 100 |
| O=C(NNC(=S)Nc1cccc(Cl)c1)c1cc(-c2ccccc2)nc2ccccc12 | 39.6 | 31.5 | 34.3 | 29.8 | 49.9 | 33.2 | 56.2 | 75.3 | 53.3 | 32.7 | 74.6 | 41.9 | 32.3 | 33.4 | 32.1 |  |
